From paper PMC3914206

Key:
panel of 442 kinases [1] = molecular target: T1, panel of 442 kinases (Homo sapiens, UniProt P42680); format: binding; conditions: kinase TEC; compound concentration 10 µM
T1 construct: purchased KINOMEscan
T1 sequence (P42680 1-631): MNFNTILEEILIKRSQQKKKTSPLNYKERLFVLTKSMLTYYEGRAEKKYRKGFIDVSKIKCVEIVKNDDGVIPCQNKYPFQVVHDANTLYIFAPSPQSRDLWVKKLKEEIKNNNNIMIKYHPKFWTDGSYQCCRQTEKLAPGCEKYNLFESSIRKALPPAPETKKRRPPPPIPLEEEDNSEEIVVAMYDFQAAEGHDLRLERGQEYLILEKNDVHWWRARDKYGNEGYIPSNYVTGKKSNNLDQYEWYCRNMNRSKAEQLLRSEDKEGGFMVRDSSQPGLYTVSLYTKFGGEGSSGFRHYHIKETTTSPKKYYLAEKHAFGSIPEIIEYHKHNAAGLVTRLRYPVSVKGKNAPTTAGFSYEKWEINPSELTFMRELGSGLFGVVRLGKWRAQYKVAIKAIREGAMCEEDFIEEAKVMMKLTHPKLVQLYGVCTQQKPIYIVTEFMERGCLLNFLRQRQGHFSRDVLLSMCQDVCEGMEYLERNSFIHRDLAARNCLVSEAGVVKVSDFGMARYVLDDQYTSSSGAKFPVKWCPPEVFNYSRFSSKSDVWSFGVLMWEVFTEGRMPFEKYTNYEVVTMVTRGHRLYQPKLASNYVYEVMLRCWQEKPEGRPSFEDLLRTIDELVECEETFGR
Source text: (§1) We assessed the selectivity of members of this scaffold using the KINOMEscan methodology across a near comprehensive panel of 442 kinases [[18,27]].

panel of 442 kinases [2] = molecular target: T2, panel of 442 kinases (Homo sapiens, UniProt Q02763); format: binding; conditions: kinase TIE2; compound concentration 10 µM
T2 construct: purchased KINOMEscan
T2 sequence (Q02763 23-1124): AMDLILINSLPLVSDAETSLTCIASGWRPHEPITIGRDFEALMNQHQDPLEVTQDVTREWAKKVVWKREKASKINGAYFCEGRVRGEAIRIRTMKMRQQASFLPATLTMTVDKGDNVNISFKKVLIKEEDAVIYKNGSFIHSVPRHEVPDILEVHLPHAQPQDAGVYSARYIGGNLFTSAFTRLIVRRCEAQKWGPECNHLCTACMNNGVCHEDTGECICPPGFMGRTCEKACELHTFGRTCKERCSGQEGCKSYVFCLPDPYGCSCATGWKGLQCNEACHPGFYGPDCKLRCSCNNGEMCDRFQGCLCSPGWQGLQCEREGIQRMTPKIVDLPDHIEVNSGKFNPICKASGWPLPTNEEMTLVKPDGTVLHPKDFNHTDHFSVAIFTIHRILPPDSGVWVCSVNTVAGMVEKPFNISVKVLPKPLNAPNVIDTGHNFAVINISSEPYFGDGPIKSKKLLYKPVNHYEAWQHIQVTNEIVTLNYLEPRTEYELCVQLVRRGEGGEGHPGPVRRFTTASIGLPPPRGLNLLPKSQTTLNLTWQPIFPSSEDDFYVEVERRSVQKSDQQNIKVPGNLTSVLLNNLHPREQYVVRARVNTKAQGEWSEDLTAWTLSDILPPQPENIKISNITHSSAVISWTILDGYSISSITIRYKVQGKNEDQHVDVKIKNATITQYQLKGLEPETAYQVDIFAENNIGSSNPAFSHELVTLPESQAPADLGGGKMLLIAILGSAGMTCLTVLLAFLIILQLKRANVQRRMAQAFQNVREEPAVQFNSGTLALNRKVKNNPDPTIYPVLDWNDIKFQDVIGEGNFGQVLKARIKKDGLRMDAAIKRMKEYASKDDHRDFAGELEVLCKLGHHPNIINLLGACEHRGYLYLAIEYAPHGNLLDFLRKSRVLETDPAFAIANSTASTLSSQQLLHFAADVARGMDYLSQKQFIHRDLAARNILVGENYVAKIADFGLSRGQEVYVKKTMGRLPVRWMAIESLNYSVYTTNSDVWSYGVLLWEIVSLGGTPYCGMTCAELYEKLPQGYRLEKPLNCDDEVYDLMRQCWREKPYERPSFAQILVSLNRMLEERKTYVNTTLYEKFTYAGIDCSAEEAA
Source text: as §1

| SMILES | % Ctrl, TEC (panel of 442 kinases [1]) [% Ctrl] | % Ctrl, TIE2 (panel of 442 kinases [2]) [% Ctrl] |
| --- | --- | --- |
| COc1cc(C(=O)N2CCC(N3CCN(C)CC3)CC2)ccc1Nc1ncc2c(n1)N(C)c1ccccc1C(=O)N2C [15 (LRRK2-IN-1)] | 100 | 100 |
| CCOc1cc(C(=O)N2CCC(N3CCN(C)CC3)CC2)ccc1Nc1ncc2c(n1)N(C1CCCC1)c1ccccc1C(=O)N2C [Compound 26] | 100 | 100 |
| COc1cc(C(=O)N2CCC(N3CCN(C)CC3)CC2)ccc1Nc1ncc2c(n1)N1CCc3cccc(c31)C(=O)N2C [Compound 24] | 100 | 79 |
| COc1cc(C(=O)N2CCC(N3CCN(C)CC3)CC2)ccc1Nc1ncc2c(n1)N(C1CCCC1)c1ccccc1C(=O)N2C [Compound 25, 11-cyclopentyl-2-((2-methoxy-4-(4-(4-methylpiperazin-1-yl)piperidine-1-carbonyl)phenyl)amino)-5-methyl-5H-benzo[e]pyrimido[5,4-b][1,4]diazepin-6(11H)-one] | 91 | 100 |
